≈ marks a conversion by molar mass, not a printed value.
Target: alpha-glucosidase (Saccharomyces cerevisiae)
Assay: Inhibition of Saccharomyces cerevisiae alpha-glucosidase assessed as release of p-nitrophenol using pNPG as substrate preincubated for 15 mins followed by substrate addition and measured after 15 mins by plate reader analysis

Structure (SMILES) | IC50 [µg/mL]
O=c1c2cc(O)ccc2oc2cc(O)cc(O)c12 [1,3,7-trihydroxy-9H-xanthen-9-one] | 3.2 (≈ 13.1 µM)
COc1ccc(O)c2c(=O)c3cc(O)ccc3oc12 [CHEBI:67553] | 28 (≈ 108 µM)
COc1ccc2oc3ccc(O)cc3c(=O)c2c1OC | 49 (≈ 180 µM)
COc1cc(O)c2c(=O)c3cc(O)ccc3oc2c1OC | 13 (≈ 45.1 µM)
COc1c(O)cc2oc3ccc(O)c(OC)c3c(=O)c2c1O | 63 (≈ 207 µM)
COc1c(O)cc(O)c2c(=O)c3cc(O)ccc3oc12 | 13 (≈ 47.4 µM)
O=c1c2cc(O)ccc2oc2cccc(O)c12 [CHEBI:4946] | 36 (≈ 158 µM)
COc1c(O)cc2oc3ccc(O)cc3c(=O)c2c1O | 7.6 (≈ 27.7 µM)
COc1cc(OC)c2c(=O)c3c(O)c(OC)ccc3oc2c1O | 59 (≈ 185 µM)
COc1ccc2oc3ccc(O)cc3c(=O)c2c1 | 77 (≈ 318 µM)
